Reference: ChEMBL document CHEMBL5291721, “A preclinical secondary pharmacology resource illuminates target-adverse drug reaction associations of marketed drugs” (Nat Commun, 2023)

Experiments:
Adenosine receptor A1 = molecular target: T1, Adenosine receptor A1 (Homo sapiens, UniProt P30542)
T1 sequence (P30542 whole entry): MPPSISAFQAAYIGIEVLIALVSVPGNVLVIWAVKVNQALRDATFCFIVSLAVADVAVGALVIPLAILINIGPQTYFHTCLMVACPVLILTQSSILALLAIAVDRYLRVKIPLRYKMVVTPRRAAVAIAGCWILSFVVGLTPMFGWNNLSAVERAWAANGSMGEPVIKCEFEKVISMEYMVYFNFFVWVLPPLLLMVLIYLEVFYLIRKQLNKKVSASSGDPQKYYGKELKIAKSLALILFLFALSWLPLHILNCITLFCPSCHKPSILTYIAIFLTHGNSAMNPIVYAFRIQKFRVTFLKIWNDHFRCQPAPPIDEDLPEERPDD

Adenosine receptor A2a = Adenosine receptor A2a (Homo sapiens, UniProt P29274)
Cannabinoid receptor 1 = Cannabinoid receptor 1 (Homo sapiens, UniProt P21554)
D(1A) dopamine receptor = D(1A) dopamine receptor (Homo sapiens, UniProt P21728); type: functional, cell-based
[1] = molecular target: T2, 5-hydroxytryptamine receptor 1A (Homo sapiens, UniProt P08908); type: functional, cell-based
T2 sequence (P08908 whole entry): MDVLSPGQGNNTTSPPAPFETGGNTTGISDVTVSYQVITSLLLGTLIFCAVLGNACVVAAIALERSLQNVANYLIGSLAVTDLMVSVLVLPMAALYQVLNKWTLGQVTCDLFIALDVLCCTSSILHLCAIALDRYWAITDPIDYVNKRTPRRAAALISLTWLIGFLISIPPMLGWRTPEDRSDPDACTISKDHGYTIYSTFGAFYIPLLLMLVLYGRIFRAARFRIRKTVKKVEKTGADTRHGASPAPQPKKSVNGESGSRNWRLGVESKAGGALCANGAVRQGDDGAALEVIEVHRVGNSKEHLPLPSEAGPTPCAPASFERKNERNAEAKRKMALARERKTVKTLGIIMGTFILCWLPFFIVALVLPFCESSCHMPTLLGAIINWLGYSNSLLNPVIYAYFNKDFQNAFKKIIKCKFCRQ

[2] = molecular target: 5-hydroxytryptamine receptor 2B (Homo sapiens, UniProt P41595); type: functional, cell-based
Melanocortin receptor 3 = Melanocortin receptor 3 (Homo sapiens, UniProt P41968)
[3] = molecular target: 3',5'-cyclic-AMP phosphodiesterase 4D (Homo sapiens, UniProt Q08499); type: functional
Histamine H3 receptor = Histamine H3 receptor (Homo sapiens, UniProt Q9Y5N1)
[4] = molecular target: T3, Gastrin/cholecystokinin type B receptor (Homo sapiens, UniProt P32239)
T3 sequence (P32239 whole entry): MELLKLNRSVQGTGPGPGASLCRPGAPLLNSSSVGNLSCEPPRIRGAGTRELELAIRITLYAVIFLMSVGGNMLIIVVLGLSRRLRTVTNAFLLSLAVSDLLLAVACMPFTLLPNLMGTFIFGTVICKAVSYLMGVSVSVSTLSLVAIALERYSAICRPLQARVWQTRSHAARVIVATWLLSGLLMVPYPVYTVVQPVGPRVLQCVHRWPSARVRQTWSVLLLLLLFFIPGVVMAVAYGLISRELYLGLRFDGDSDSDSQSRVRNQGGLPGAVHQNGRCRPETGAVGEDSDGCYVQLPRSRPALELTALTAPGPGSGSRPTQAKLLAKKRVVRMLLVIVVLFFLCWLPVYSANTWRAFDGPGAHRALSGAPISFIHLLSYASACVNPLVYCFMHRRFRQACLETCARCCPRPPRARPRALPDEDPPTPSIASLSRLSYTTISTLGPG

Estrogen receptor = molecular target: T4, Estrogen receptor (Homo sapiens, UniProt P03372)
T4 sequence (P03372 whole entry): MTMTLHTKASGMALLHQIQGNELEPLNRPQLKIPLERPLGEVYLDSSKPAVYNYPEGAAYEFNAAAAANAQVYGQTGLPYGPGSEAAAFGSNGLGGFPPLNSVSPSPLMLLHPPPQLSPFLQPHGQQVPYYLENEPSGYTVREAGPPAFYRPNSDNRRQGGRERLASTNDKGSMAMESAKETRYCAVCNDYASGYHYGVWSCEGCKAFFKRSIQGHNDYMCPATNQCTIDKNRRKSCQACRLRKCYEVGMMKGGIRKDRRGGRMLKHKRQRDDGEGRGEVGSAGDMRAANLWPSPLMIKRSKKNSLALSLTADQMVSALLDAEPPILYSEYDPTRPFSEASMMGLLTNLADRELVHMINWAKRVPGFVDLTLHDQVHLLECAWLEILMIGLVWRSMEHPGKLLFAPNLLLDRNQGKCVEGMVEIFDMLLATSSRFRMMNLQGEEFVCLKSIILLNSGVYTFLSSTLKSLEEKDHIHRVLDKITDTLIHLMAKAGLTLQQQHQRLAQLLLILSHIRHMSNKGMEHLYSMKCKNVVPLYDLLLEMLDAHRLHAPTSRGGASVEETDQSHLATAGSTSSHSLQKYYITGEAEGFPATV
Also: assay procedure not described here.

Cannabinoid receptor 1, sequence (P21554 whole entry): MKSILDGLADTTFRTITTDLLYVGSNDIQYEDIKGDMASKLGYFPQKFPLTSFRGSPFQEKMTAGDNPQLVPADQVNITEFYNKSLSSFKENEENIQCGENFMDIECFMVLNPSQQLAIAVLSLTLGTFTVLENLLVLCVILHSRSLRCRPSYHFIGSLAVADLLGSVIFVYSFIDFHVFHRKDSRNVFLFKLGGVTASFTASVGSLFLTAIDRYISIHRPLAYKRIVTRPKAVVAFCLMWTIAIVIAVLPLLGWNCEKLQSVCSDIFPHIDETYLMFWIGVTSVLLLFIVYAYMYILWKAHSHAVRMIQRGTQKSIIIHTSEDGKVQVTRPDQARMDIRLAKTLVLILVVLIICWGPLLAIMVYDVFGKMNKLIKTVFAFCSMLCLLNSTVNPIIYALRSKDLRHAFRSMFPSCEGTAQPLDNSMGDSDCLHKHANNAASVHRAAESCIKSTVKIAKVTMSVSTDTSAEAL
Melanocortin receptor 3, sequence (P41968 whole entry): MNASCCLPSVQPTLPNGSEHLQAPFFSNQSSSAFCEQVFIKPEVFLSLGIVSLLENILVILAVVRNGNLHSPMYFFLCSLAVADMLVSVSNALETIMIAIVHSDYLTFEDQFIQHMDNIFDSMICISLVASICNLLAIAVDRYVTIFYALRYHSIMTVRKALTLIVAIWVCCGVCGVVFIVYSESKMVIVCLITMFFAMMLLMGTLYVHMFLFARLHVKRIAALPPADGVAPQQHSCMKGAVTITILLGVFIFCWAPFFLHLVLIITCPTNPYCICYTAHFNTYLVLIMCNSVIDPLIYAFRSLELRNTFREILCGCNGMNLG
Histamine H3 receptor, sequence (Q9Y5N1 whole entry): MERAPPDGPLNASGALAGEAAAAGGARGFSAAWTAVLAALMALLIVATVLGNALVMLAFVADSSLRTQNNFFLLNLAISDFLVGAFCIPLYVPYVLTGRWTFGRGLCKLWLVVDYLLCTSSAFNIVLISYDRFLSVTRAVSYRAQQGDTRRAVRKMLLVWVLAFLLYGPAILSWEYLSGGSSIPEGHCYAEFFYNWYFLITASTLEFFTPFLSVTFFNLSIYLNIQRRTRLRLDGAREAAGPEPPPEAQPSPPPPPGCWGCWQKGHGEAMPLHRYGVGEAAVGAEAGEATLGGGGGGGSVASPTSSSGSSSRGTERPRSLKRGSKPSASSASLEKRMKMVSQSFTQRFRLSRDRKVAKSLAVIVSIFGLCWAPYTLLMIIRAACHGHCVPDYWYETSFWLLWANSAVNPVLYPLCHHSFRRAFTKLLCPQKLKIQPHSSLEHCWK
3',5'-cyclic-AMP phosphodiesterase 4D, sequence (Q08499 whole entry): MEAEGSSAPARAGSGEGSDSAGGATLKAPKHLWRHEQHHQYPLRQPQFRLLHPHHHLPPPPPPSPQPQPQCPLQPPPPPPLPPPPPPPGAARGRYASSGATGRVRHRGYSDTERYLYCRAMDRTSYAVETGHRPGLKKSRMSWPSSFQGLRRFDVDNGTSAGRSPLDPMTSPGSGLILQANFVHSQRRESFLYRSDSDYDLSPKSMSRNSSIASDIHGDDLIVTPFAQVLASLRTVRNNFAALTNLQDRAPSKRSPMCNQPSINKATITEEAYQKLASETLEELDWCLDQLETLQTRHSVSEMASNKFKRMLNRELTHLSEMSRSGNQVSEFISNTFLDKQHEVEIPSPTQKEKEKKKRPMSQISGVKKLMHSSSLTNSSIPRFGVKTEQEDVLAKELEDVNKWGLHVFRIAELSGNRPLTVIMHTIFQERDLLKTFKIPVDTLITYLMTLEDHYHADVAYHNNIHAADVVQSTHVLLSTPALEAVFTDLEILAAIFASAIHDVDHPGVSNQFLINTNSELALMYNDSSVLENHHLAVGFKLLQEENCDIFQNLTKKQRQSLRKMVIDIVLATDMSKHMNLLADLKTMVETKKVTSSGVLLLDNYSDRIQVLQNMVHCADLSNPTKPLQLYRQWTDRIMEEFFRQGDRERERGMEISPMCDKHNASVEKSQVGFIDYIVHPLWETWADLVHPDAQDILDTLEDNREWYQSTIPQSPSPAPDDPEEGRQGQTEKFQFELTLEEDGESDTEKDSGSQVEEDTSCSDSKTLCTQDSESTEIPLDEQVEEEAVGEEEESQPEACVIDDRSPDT
D(1A) dopamine receptor, sequence (P21728 whole entry): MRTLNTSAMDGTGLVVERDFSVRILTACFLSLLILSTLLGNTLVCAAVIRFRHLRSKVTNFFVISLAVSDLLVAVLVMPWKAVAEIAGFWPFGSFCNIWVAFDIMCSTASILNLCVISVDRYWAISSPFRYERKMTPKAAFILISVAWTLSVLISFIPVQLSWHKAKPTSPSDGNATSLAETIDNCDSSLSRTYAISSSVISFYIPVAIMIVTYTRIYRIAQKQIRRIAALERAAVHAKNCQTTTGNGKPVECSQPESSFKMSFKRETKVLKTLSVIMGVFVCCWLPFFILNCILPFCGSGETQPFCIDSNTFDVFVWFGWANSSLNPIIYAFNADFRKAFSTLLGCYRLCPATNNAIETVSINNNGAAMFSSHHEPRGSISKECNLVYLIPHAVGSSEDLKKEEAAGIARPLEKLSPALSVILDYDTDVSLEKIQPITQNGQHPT
5-hydroxytryptamine receptor 2B, sequence (P41595 whole entry): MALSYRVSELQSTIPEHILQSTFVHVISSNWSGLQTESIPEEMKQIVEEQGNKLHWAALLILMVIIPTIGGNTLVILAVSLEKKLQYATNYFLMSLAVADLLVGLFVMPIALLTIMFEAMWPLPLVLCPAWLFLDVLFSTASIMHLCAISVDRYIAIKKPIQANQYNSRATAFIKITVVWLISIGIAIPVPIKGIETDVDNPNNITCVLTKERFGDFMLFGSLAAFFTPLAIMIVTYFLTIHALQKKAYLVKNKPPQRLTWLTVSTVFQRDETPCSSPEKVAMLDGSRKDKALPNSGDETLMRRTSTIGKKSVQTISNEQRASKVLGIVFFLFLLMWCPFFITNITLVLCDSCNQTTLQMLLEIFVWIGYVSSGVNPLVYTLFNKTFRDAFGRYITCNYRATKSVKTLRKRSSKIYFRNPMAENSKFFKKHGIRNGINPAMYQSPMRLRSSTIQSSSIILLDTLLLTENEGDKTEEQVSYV
Adenosine receptor A2a, sequence (P29274 whole entry): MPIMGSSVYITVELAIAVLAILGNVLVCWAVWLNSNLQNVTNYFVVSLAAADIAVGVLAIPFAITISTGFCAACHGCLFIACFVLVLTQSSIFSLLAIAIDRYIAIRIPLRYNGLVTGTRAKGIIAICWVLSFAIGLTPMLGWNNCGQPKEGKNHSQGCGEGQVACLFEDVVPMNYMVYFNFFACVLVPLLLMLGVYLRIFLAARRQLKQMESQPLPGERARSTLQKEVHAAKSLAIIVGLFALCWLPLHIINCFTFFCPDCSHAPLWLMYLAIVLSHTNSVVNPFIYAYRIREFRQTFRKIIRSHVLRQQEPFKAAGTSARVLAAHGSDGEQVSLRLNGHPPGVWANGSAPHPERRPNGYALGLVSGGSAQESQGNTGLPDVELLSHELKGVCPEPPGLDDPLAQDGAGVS

Compound: Nc1ccc(S(=O)(=O)Nc2ncccn2)cc1 [SULFADIAZINE]
- AC50 (Adenosine receptor A1): > 10 µM
- AC50 (Adenosine receptor A2a): > 10 µM
- AC50 (Cannabinoid receptor 1): > 10 µM
- AC50 (D(1A) dopamine receptor): > 10 µM
- AC50 [1]: > 10 µM
- AC50 [2]: > 10 µM
- AC50 (Melanocortin receptor 3): > 10 µM
- AC50 [3]: > 30 µM
- AC50 (Histamine H3 receptor): > 10 µM

Compound: TEPRENONE
- AC50 (Adenosine receptor A1): > 30 µM
- AC50 (Adenosine receptor A2a): > 30 µM
- AC50 [4]: > 30 µM
- AC50 (D(1A) dopamine receptor): > 10 µM
- AC50 (Estrogen receptor): > 30 µM
- AC50 [1]: > 30 µM
- AC50 [2]: > 10 µM
- AC50 (Melanocortin receptor 3): > 30 µM
- AC50 [3]: > 30 µM
- AC50 (Histamine H3 receptor): > 10 µM

Compound: CC(=O)[C@@]1(O)CC[C@H]2[C@@H]3C[C@H](C)C4=CC(=O)C=C[C@]4(C)[C@@]3(F)[C@@H](O)C[C@@]21C [FLUOROMETHOLONE]
- AC50 (Adenosine receptor A1): > 10 µM
- AC50 (Adenosine receptor A2a): > 10 µM
- AC50 (Cannabinoid receptor 1): > 10 µM
- AC50 (D(1A) dopamine receptor): > 10 µM
- AC50 (Estrogen receptor): > 30 µM
- AC50 [2]: > 10 µM
- AC50 (Melanocortin receptor 3): > 10 µM
- AC50 [3]: > 30 µM
- AC50 (Histamine H3 receptor): > 10 µM

Compound: CC(C)(C)NCC(O)COc1cccc2c1CC(O)C(O)C2 (stereo not given) [NADOLOL]
- AC50 (Adenosine receptor A1): > 10 µM
- AC50 (Adenosine receptor A2a): > 10 µM
- AC50 (Cannabinoid receptor 1): > 10 µM
- AC50 (D(1A) dopamine receptor): > 10 µM
- AC50 (Estrogen receptor): > 10 µM
- AC50 [2]: > 10 µM
- AC50 (Melanocortin receptor 3): > 10 µM
- AC50 [3]: > 30 µM
- AC50 (Histamine H3 receptor): > 10 µM

Compound: C=C(c1ccccc1OCc1cccc(Cl)c1)n1ccnc1 [CROCONAZOLE]
- AC50 (Adenosine receptor A1): > 30 µM
- AC50 (Adenosine receptor A2a): > 30 µM
- AC50 [4]: > 30 µM
- AC50 (D(1A) dopamine receptor): > 10 µM
- AC50 (Estrogen receptor): > 30 µM
- AC50 [1]: 24 µM
- AC50 [2]: 8.5 µM
- AC50 (Melanocortin receptor 3): > 30 µM
- AC50 [3]: 7.1 µM
- AC50 (Histamine H3 receptor): > 10 µM

Compound: CC(C)CN(C[C@@H](O)[C@H](Cc1ccccc1)NC(=O)O[C@H]1CCOC1)S(=O)(=O)c1ccc(N)cc1
- AC50 (Adenosine receptor A1): > 30 µM
- AC50 (Adenosine receptor A2a): > 30 µM
- AC50 [4]: > 30 µM
- AC50 (Cannabinoid receptor 1): 11.4 µM
- AC50 (D(1A) dopamine receptor): > 10 µM
- AC50 (Estrogen receptor): > 10 µM
- AC50 [2]: > 10 µM
- AC50 (Melanocortin receptor 3): > 30 µM
- AC50 [3]: > 30 µM
- AC50 (Histamine H3 receptor): > 10 µM

Compound: CC1CC(OC(=O)C(O)c2ccccc2)CC(C)(C)C1 (stereo not given) [CYCLANDELATE]
- AC50 (Adenosine receptor A1): > 10 µM
- AC50 (Adenosine receptor A2a): > 10 µM
- AC50 (Cannabinoid receptor 1): > 10 µM
- AC50 (D(1A) dopamine receptor): > 10 µM
- AC50 (Estrogen receptor): > 30 µM
- AC50 [1]: > 10 µM
- AC50 [2]: > 10 µM
- AC50 (Melanocortin receptor 3): > 10 µM
- AC50 [3]: > 30 µM
- AC50 (Histamine H3 receptor): > 10 µM

Compound: CN(Cc1ccc(C(C)(C)C)cc1)Cc1cccc2ccccc12 [BUTENAFINE]
- AC50 (Adenosine receptor A1): > 10 µM
- AC50 (Adenosine receptor A2a): > 10 µM
- AC50 (Cannabinoid receptor 1): > 10 µM
- AC50 (D(1A) dopamine receptor): > 10 µM
- AC50 (Estrogen receptor): > 30 µM
- AC50 [1]: > 10 µM
- AC50 [2]: > 10 µM
- AC50 (Melanocortin receptor 3): > 10 µM
- AC50 [3]: > 30 µM
- AC50 (Histamine H3 receptor): > 10 µM

Compound: Cc1cnc(Nc2ccc(OCCN3CCCC3)cc2)nc1Nc1cccc(S(=O)(=O)NC(C)(C)C)c1 [FEDRATINIB]
- AC50 (Adenosine receptor A1): 7.17 µM
- AC50 (Adenosine receptor A2a): 3.75 µM
- AC50 [4]: > 30 µM
- AC50 (Cannabinoid receptor 1): > 10 µM
- AC50 (D(1A) dopamine receptor): > 10 µM
- AC50 (Estrogen receptor): > 30 µM
- AC50 [2]: > 10 µM
- AC50 (Melanocortin receptor 3): > 30 µM
- AC50 [3]: 0.22 µM
- AC50 (Histamine H3 receptor): 3.9 µM

Compound: CC(=O)N1CCN(c2ccc(OCC3COC(Cn4ccnc4)(c4ccc(Cl)cc4Cl)O3)cc2)CC1 (stereo not given) [KETOCONAZOLE]
- AC50 (Adenosine receptor A1): > 30 µM
- AC50 (Adenosine receptor A2a): > 30 µM
- AC50 (Cannabinoid receptor 1): > 10 µM
- AC50 (D(1A) dopamine receptor): > 10 µM
- AC50 (Estrogen receptor): > 10 µM
- AC50 [2]: 15 µM
- AC50 (Melanocortin receptor 3): > 10 µM
- AC50 [3]: > 10 µM
- AC50 (Histamine H3 receptor): > 10 µM

Compound: O=C(O)CCCC[C@@H]1SC[C@@H]2NC(=O)N[C@@H]21 [BIOTIN]
- AC50 (Adenosine receptor A1): > 10 µM
- AC50 (Adenosine receptor A2a): > 10 µM
- AC50 (Cannabinoid receptor 1): > 10 µM
- AC50 (D(1A) dopamine receptor): > 10 µM
- AC50 (Estrogen receptor): > 10 µM
- AC50 [1]: > 10 µM
- AC50 [2]: > 10 µM
- AC50 (Melanocortin receptor 3): > 10 µM
- AC50 [3]: > 30 µM

Compound: CCN(C(C)=O)c1cccc(-c2ccnc3c(C#N)cnn23)c1 [ZALEPLON]
- AC50 (Adenosine receptor A1): > 30 µM
- AC50 (Adenosine receptor A2a): > 30 µM
- AC50 [4]: > 30 µM
- AC50 (D(1A) dopamine receptor): > 10 µM
- AC50 (Estrogen receptor): > 30 µM
- AC50 [1]: > 10 µM
- AC50 [2]: > 10 µM
- AC50 (Melanocortin receptor 3): > 30 µM
- AC50 [3]: > 30 µM
- AC50 (Histamine H3 receptor): > 10 µM
